{"source": "patent US4205069A", "about": "“Dipeptide narcotic antagonists” (American Home Products Corporation, priority 1978, dated 1980)", "key": {"[1]": {"tested_on": "morphine-induced analgesia", "assay": "Antagonism of morphine-induced analgesia, tail-flick test", "assay_type": "in vivo, rat", "conditions": "rats, tail-flick latency >8 sec", "experimental": "(§1) Duration of analgesia may conveniently be determined by testing for analgesia at regular intervals using a modification of the procedure of D'Amour and Smith, J. Pharmacol., 72, 74 (1941), the tail-flick test. In this test, the existence of analgesia in a rat is determined by measuring the increase in the latency period during which a rat will tolerate a high intensity light beam shining on the tip of its tail.\n^a All rats were tested at 5minute intervals in the tailflick test\nuntil latencies of 2 to 5 sec. were obtained on three consecutive trials.\nAll rats then received an injection of morphine sulfate (as indicated in\nthe table) and were returned to the tailflick test until three consecutiv\ntrials with no movement of the tail for 8 seconds were obtained. The rats\nthen received a subcutaneous injection of the test compound, or a control\ninjection, and were returned to the tailflick test to determine the\n^b The duration score is the number of minutes the animal was\ncompletely analgesic (tailflick latency >8 sec.) following injection of […]"}, "[2]": {"tested_on": "analgesia produced by intraventricular HTyr-D-Ala-Gly-Phe-D-Leu-NH2", "assay": "Antagonism of enkephalin analog-induced analgesia, tail-flick test", "assay_type": "in vivo, rat", "conditions": "rats, HTyr-D-Ala-Gly-Phe-D-Leu-NH2 1 μg intraventricular", "experimental": "as §1\n^a The procedure is the same as in Example 11 except that analgesia\nwas produced by an intraventricular injection of\nHTyr-D-Ala-Gly-Phe-D-Leu-NH2, 1 μg. in 10 μ1. of Ringers\n^b The duration score was the same as in Table 1."}, "[3]": {"conditions": "morphine sulfate 2.5 mg/kg subcutaneously, test compound 2.5 mg/kg s.c."}, "[4]": {"conditions": "morphine sulfate 2.5 mg/kg subcutaneously, test compound 5 mg/kg s.c."}, "[5]": {"conditions": "morphine sulfate 5 mg/kg intraperitoneally, test compound 5 mg/kg s.c."}}, "data": [{"smiles": "C[C@@H](NC(=O)[C@@H](N)Cc1ccc(O)cc1)C(N)=O", "note": "[H-Tyr-D-Ala-NH2]", "values": [{"measurement": "Mean Duration of Analgesia", "setting": "[1]; morphine sulfate 2.5 mg/kg subcutaneously, test compound 1 mg/kg s.c.", "value": "> 90.00", "unit": "min"}, {"measurement": "Mean Duration of Analgesia", "setting": "[1]; [3]", "value": 55.00, "unit": "min"}, {"measurement": "Mean Duration of Analgesia", "setting": "[1]; [4]", "value": 40.00, "unit": "min"}, {"measurement": "Mean Duration of Analgesia", "setting": "[1]; [5]", "value": 41.67, "unit": "min"}, {"measurement": "Mean Duration of Analgesia", "setting": "[2]; test compound 5 mg/kg s.c.", "value": 31.0, "unit": "min"}]}, {"smiles": "COC(=O)[C@@H](C)NC(=O)[C@@H](N)Cc1ccc(O)cc1", "note": "[H-Tyr-D-Ala-O-Me, H-Tyr-D-Ala-OMe]", "values": [{"measurement": "Mean Duration of Analgesia", "setting": "[1]; [3]", "value": 45.00, "unit": "min"}, {"measurement": "Mean Duration of Analgesia", "setting": "[1]; [4]", "value": 61.67, "unit": "min"}, {"measurement": "Mean Duration of Analgesia", "setting": "[1]; morphine sulfate 5 mg/kg intraperitoneally, test compound 2.5 mg/kg s.c.", "value": 37.50, "unit": "min"}, {"measurement": "Mean Duration of Analgesia", "setting": "[1]; [5]", "value": 27.50, "unit": "min"}, {"measurement": "Mean Duration of Analgesia", "setting": "[2]; test compound 1.25 mg/kg s.c.", "value": 20.0, "unit": "min"}, {"measurement": "Mean Duration of Analgesia", "setting": "[2]; test compound 5 mg/kg s.c.", "value": 5.0, "unit": "min"}, {"measurement": "Mean Duration of Analgesia", "setting": "[2]; test compound 10 mg/kg s.c.", "value": 50.0, "unit": "min"}]}]}
